Experimental data from US20150344457A1, “METHODS OF INHIBITING PRMT5” (EPIZYME, INC., priority 2012, published 2015).

Tested on: Z-138 cells
Assay: Z-138 Methylation Assay (In Cell Western for symmetric di-methyl arginine and DNA content)
Format: cell-based
Settings: Homo sapiens, Table A-2, 96 hours, symmetric di-methyl arginine, read-out: ICW EC50
Text: Z-138 suspension cells were purchased from ATCC (American Type Culture Collection, Manassas, Va.). RPMI/Glutamax medium, penicillin-streptomycin, heat inactivated fetal bovine serum, and D-PBS were purchased from Life Technologies, Grand Island, N.Y., USA. Odyssey blocking buffer, 800CW goat anti-rabbit IgG (H+L) antibody, and Licor Odyssey infrared scanner were purchased from Licor Biosciences, Lincoln, Nebr., USA. Symmetric di-methyl arginine antibody was purchased from EMD Millipore, Billerica, Mass., USA. 16% Paraformaldehyde was purchased from Electron Microscopy Sciences, Hatfield, Pa., USA.
Z-138 suspension cells were maintained in growth medium (RPMI 1640 supplemented with 10% v/v heat inactivated fetal bovine serum and 100 units/mL penicillin-streptomycin) and cultured at 37° C. under 5% CO2.
Cell Treatment, in Cell Western (ICW) for Detection of Symmetric Di-Methyl Arginine and DNA Content.
Z-138 cells were seeded in assay medium at a concentration of 50,000 cells per mL to a 384-well cell culture plate with 50 μL per well. Compound (100 nL) from 384 well source plates was added directly to 384 well cell plate. Plates were incubated at 37° C., 5% CO2 for 96 hours. After four days of incubation, 40 μL of cells from incubated plates were added to poly-D-lysine coated 384 well culture plates (BD Biosciences 356697). Plates were incubated at room temperature for 30 minutes then incubated at 37° C., 5% CO2 for 5 hours. After the incubation, 40 μL per well of 8% paraformaldehyde in PBS (16% paraformaldahyde was diluted to 8% in PBS) was added to each plate and incubated for 30 minutes. Plates were transferred to a Biotek 405 plate washer and washed 5 times with 100 μL per well of wash buffer (1×PBS with 0.1% Triton X-100 (v/v)). Next 30 μL per well of Odyssey blocking buffer were added to each plate and incubated 1 hour at room temperature. Blocking buffer was removed and 20 μL per well of primary antibody was added (symmetric di-methyl arginine diluted 1:100 in Odyssey buffer with 0.1% Tween 20 (v/v)) and plates were incubated overnight (16 hours) at 4° C. Plates were washed 5 times with 100 μL per well of wash buffer. Next 20 μL per well of secondary antibody was added (1:200 800CW goat anti-rabbit IgG (H+L) antibody, 1:1000 DRAQS (Biostatus limited) in Odyssey buffer with 0.1% Tween 20 (v/v)) and incubated for 1 hour at room temperature. The plates were washed 5 times with 100 μL per well wash buffer then 1 time with 100 μL per well of water. Plates were allowed to dry at room temperature then imaged on the Licor Odyssey machine which measures integrated intensity at 700 nm and 800 nm wavelengths. Both 700 and 800 channels were scanned.
First, the ratio for each well was determined by:
Each plate included fourteen control wells of DMSO only treatment (minimum inhibition) as well as fourteen control wells for maximum inhibition treated with 3 μM of a reference compound (Background wells). The average of the ratio values for each control type was calculated and used to determine the percent inhibition for each test well in the plate. Reference compound was serially diluted three-fold in DMSO for a total of nine test concentrations, beginning at 3 μM. Percent inhibition was determined and IC50 curves were generated using triplicate wells per concentration of compound.

SMILES	EC50 [nM]
O=C(COc1cccc2cccnc12)NCC(O)CN1CCc2ccccc2C1 (stereo not drawn) [Compound A6]	< 100
O=C(COc1cccc(F)c1)NCC(O)CN1CCc2ccccc2C1 (stereo not drawn) [Compound A7]	101 to 1000
N#Cc1cccc(OCC(=O)NCC(O)CN2CCc3ccccc3C2)c1 (stereo not drawn) [Compound A8]	101 to 1000
Cc1ccc(OCC(=O)NCC(O)CN2CCc3ccccc3C2)cc1 (stereo not drawn) [Compound A9]	10000 to 50000
N#Cc1ccc(OCC(=O)NCC(O)CN2CCc3ccccc3C2)cc1 (stereo not drawn) [Compound A11]	101 to 1000
COc1ccc(OCC(=O)NCC(O)CN2CCc3ccccc3C2)cc1 (stereo not drawn) [Compound A12]	101 to 1000
Cc1ccccc1OCC(=O)NCC(O)CN1CCc2ccccc2C1 (stereo not drawn) [Compound A15]	101 to 1000
O=C(COc1ccccc1F)NCC(O)CN1CCc2ccccc2C1 (stereo not drawn) [Compound A16]	101 to 1000
N#Cc1ccccc1OCC(=O)NCC(O)CN1CCc2ccccc2C1 (stereo not drawn) [Compound A17]	101 to 1000
O=C(CNc1ccccc1)NCC(O)CN1CCc2ccccc2C1 (stereo not drawn) [Compound A18]	1000 to 10000
CC(Oc1ccccc1)C(=O)NCC(O)CN1CCc2ccccc2C1 (stereo not drawn) [Compound A19]	101 to 1000
COc1cccc(OCC(=O)NCC(O)CN2CCc3ccccc3C2)c1 (stereo not drawn) [Compound A20]	101 to 1000
CC(=O)Nc1ccc(OCC(=O)NCC(O)CN2CCc3ccccc3C2)cc1 (stereo not drawn) [Compound A21]	101 to 1000
COc1ccccc1OCC(=O)NCC(O)CN1CCc2ccccc2C1 (stereo not drawn) [Compound A22]	101 to 1000
Cn1ncc2ccc(OCC(=O)NCC(O)CN3CCc4ccccc4C3)cc21 (stereo not drawn) [Compound A23]	101 to 1000
Cc1cccc(OCC(=O)NCC(O)CN2CCc3ccccc3C2)c1 (stereo not drawn) [Compound A26]	101 to 1000
CN(C)c1cccc(OCC(=O)NCC(O)CN2CCc3ccccc3C2)c1 (stereo not drawn) [Compound A27]	101 to 1000
CS(=O)(=O)Nc1cccc(OCC(=O)NCC(O)CN2CCc3ccccc3C2)c1 (stereo not drawn) [Compound A28]	101 to 1000
NC(=O)c1ccccc1OCC(=O)NCC(O)CN1CCc2ccccc2C1 (stereo not drawn) [Compound A29]	101 to 1000
CC(=O)Nc1cccc(OCC(=O)NCC(O)CN2CCc3ccccc3C2)c1 (stereo not drawn) [Compound A31]	101 to 1000
O=C(COc1ccccc1)NC[C@H](O)CN1CCc2ccccc2C1 [Compound A32]	101 to 1000
NC(=O)c1cccc(OCC(=O)NCC(O)CN2CCc3ccccc3C2)c1 (stereo not drawn) [Compound A34]	101 to 1000
CN(C)c1ccc(OCC(=O)NCC(O)CN2CCc3ccccc3C2)cc1 (stereo not drawn) [Compound A35]	101 to 1000

SMILES	EC50 [nM]
CC(=O)Nc1ccccc1OCC(=O)NCC(O)CN1CCc2ccccc2C1 (stereo not drawn) [Compound A36]	101 to 1000
CS(=O)(=O)c1ccccc1OCC(=O)NCC(O)CN1CCc2ccccc2C1 (stereo not drawn) [Compound A37]	< 100
CN(C)c1ccccc1OCC(=O)NCC(O)CN1CCc2ccccc2C1 (stereo not drawn) [Compound A38]	< 100
CC(Oc1cccc2cccnc12)C(=O)NCC(O)CN1CCc2ccccc2C1 (stereo not drawn) [Compound A39]	< 100
O=C(COc1ccccc1C1CCCCC1)NCC(O)CN1CCc2ccccc2C1 (stereo not drawn) [Compound A40]	101 to 1000
CS(=O)(=O)Nc1ccc(OCC(=O)NCC(O)CN2CCc3ccccc3C2)cc1 (stereo not drawn) [Compound A42]	101 to 1000
CC(C)(Oc1cccc2cccnc12)C(=O)NCC(O)CN1CCc2ccccc2C1 (stereo not drawn) [Compound A43]	101 to 1000
O=C(COc1cccc2cccnc12)NC[C@H](O)CN1CCc2ccccc2C1 [Compound A44]	101 to 1000
O=C(COc1cccc2cccnc12)NC[C@@H](O)CN1CCc2ccccc2C1 [Compound A45]	< 100
Cn1cnc2cc(OCC(=O)NCC(O)CN3CCc4ccccc4C3)ccc21 (stereo not drawn) [Compound A46]	101 to 1000
CS(=O)(=O)c1cccc(OCC(=O)NCC(O)CN2CCc3ccccc3C2)c1 (stereo not drawn) [Compound A47]	101 to 1000
O=C(COc1cccc2ccc(N3CCOCC3)nc12)NCC(O)CN1CCc2ccccc2C1 (stereo not drawn) [Compound A48]	101 to 1000
O=C(COc1ccccc1N1CCOCC1)NCC(O)CN1CCc2ccccc2C1 (stereo not drawn) [Compound A49]	101 to 1000
O=C(COc1ccccc1-c1cc[nH]n1)NCC(O)CN1CCc2ccccc2C1 (stereo not drawn) [Compound A50]	< 100
CS(=O)(=O)Nc1ccccc1OCC(=O)NCC(O)CN1CCc2ccccc2C1 (stereo not drawn) [Compound A53]	101 to 1000
O=C(COc1cccc2c1CCCC2)NCC(O)CN1CCc2ccccc2C1 (stereo not drawn) [Compound A64]	101 to 1000
NS(=O)(=O)c1ccccc1OCC(=O)NCC(O)CN1CCc2ccccc2C1 (stereo not drawn) [Compound A65]	101 to 1000
O=C(COc1cccc2ccccc12)NCC(O)CN1CCc2ccccc2C1 (stereo not drawn) [Compound A66]	101 to 1000
O=C(COc1ccccc1-c1cc[nH]n1)NC[C@@H](O)CN1CCc2ccccc2C1 [Compound A67]	< 100
O=C(COc1ccccc1-c1cc[nH]n1)NC[C@H](O)CN1CCc2ccccc2C1 [Compound A68]	101 to 1000
O=C(COc1ccc2ncn(C3CCNCC3)c2c1)NCC(O)CN1CCc2ccccc2C1 (stereo not drawn) [Compound A70]	101 to 1000
CN1CCC(n2cnc3ccc(OCC(=O)NCC(O)CN4CCc5ccccc5C4)cc32)CC1 (stereo not drawn) [Compound A71]	101 to 1000
C[C@@H](Oc1cccc2cccnc12)C(=O)NC[C@H](O)CN1CCc2ccccc2C1 [Compound A73]	< 100

SMILES	EC50 [nM]
C[C@@H](Oc1cccc2cccnc12)C(=O)NC[C@@H](O)CN1CCc2ccccc2C1 [Compound A74]	101 to 1000
CN1CCC(n2ncc3cc(OCC(=O)NCC(O)CN4CCc5ccccc5C4)ccc32)C1 (stereo not drawn) [Compound A96]	101 to 1000
COc1ccc2cccc(OCC(=O)NC[C@H](O)CN3CCc4ccccc4C3)c2n1 [Compound A97]	101 to 1000
COc1ccc2cccc(OCC(=O)NC[C@@H](O)CN3CCc4ccccc4C3)c2n1 [Compound A98]	< 100
CN1CCc2c(cccc2OCC(=O)NCC(O)CN2CCc3ccccc3C2)C1 (stereo not drawn) [Compound A99]	101 to 1000
O=C(COc1cccc2c1OCCO2)NCC(O)CN1CCc2ccccc2C1 (stereo not drawn) [Compound A100]	< 100
CC(=O)N1CCc2c(cccc2OCC(=O)NCC(O)CN2CCc3ccccc3C2)C1 (stereo not drawn) [Compound A101]	< 100
CS(=O)(=O)N1CCc2c(cccc2OCC(=O)NCC(O)CN2CCc3ccccc3C2)C1 (stereo not drawn) [Compound A102]	< 100
O=C(COc1ccccc1C1CCNCC1)NCC(O)CN1CCc2ccccc2C1 (stereo not drawn) [Compound A103]	101 to 1000
CN(C)c1ccc2cccc(OCC(=O)NC[C@H](O)CN3CCc4ccccc4C3)c2n1 [Compound A104]	1000 to 10000
CN(C)c1ccc2cccc(OCC(=O)NC[C@@H](O)CN3CCc4ccccc4C3)c2n1 [Compound A105]	101 to 1000
CS(=O)(=O)N1CCN(c2ccccc2OCC(=O)NCC(O)CN2CCc3ccccc3C2)CC1 (stereo not drawn) [Compound A106]	101 to 1000
O=C(COc1ccccc1S(=O)(=O)N1CCNCC1)NCC(O)CN1CCc2ccccc2C1 (stereo not drawn) [Compound A107]	< 100
CN1CCN(S(=O)(=O)c2ccccc2OCC(=O)NCC(O)CN2CCc3ccccc3C2)CC1 (stereo not drawn) [Compound A108]	101 to 1000
CN(C)S(=O)(=O)c1ccccc1OCC(=O)NCC(O)CN1CCc2ccccc2C1 (stereo not drawn) [Compound A109]	< 100
O=C(COc1ccccc1S(=O)(=O)N1CCCC1)NCC(O)CN1CCc2ccccc2C1 (stereo not drawn) [Compound A110]	< 100
O=C(COc1ccccc1S(=O)(=O)N1CCC(O)C1)NCC(O)CN1CCc2ccccc2C1 (stereo not drawn) [Compound A111]	< 100
CNC(=O)c1ccccc1OCC(=O)NCC(O)CN1CCc2ccccc2C1 (stereo not drawn) [Compound A112]	101 to 1000
CN(C)C(=O)c1ccccc1OCC(=O)NCC(O)CN1CCc2ccccc2C1 (stereo not drawn) [Compound A113]	101 to 1000
CC(Oc1ccccc1S(C)(=O)=O)C(=O)NCC(O)CN1CCc2ccccc2C1 (stereo not drawn) [Compound A114]	1000 to 10000
O=C(COc1ccccc1C1CCNC1)NCC(O)CN1CCc2ccccc2C1 (stereo not drawn) [Compound A116]	1000 to 10000
O=C(COc1ccccc1C1CCCNC1)NCC(O)CN1CCc2ccccc2C1 (stereo not drawn) [Compound A117]	101 to 1000
Cn1cc2c(OCC(=O)NCC(O)CN3CCc4ccccc4C3)cccc2n1 (stereo not drawn) [Compound A118]	1000 to 10000
